# Measurements published in PubChem BioAssay (NCI).
#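 Growth conditions: 96-well plates. Treatment: test compound, 48 hours, 5 concentrations. Analysis: linear interpolation between bracketing concentrations; unreached endpoints set to highest concentration. TGI: total growth inhibition.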
# Columns and labels:
# Assay in all cases: growth of human tumour cells (NCI), 48 h
# [1] = test system: SW-620 colon
# [2] = test system: SF-539 CNS
# [3] = test system: RXF-631 renal
# [4] = test system: DMS 114 small cell lung
# [5] = test system: HCT-15 colon
# [6] = test system: MOLT-4 leukemia
# [7] = test system: HCT-116 colon
# [8] = test system: RXF 393 renal
# [9] = test system: RPMI-8226 leukemia
# [10] = test system: SNB-75 CNS
# [11] = test system: KM12 colon
# [12] = test system: SNB-19 CNS
# [13] = test system: HOP-62 NSCLC
# [14] = test system: COLO 205 colon
# [15] = test system: UO-31 renal
# [16] = test system: SK-MEL-28 melanoma
# [17] = test system: A498 renal
# [18] = test system: HOP-18 NSCLC
# [19] = test system: OVCAR-3 ovarian
# [20] = test system: LXFL 529 NSCLC
# [21] = test system: SN12C renal
# [22] = test system: UACC-257 melanoma
# [23] = test system: CAKI-1 renal
# [24] = test system: M14 melanoma
# [25] = test system: HCC-2998 colon
# [26] = test system: OVCAR-5 ovarian
# [27] = test system: OVCAR-4 ovarian
# [28] = test system: NCI-H226 lung
# [29] = test system: OVCAR-8 ovarian
# [30] = test system: SK-MEL-5 melanoma
# [31] = test system: MALME-3M melanoma
# [32] = test system: SK-MEL-2 melanoma
# [33] = test system: NCI-H460 lung
# [34] = test system: HL-60(TB) leukemia
# [35] = test system: UACC-62 melanoma
# [36] = test system: TK-10 renal
# [37] = test system: LOX IMVI melanoma
# [38] = test system: CCRF-CEM leukemia
# [39] = test system: SF-295 CNS
# [40] = test system: SNB-78 CNS
# [41] = test system: XF 498 CNS
# [42] = test system: DLD-1 colon
# [43] = test system: SK-OV-3 ovarian
# [44] = test system: A549 NSCLC
# [45] = test system: ACHN renal
# [46] = test system: SR leukemia
# [47] = test system: DMS 273 small cell lung
# [48] = test system: KM20L2 colon
# [49] = test system: EKVX NSCLC
# [50] = test system: NCI-H522 lung
# [51] = test system: M19-MEL melanoma
# [52] = test system: HT29 colon
# [53] = test system: IGROV1 ovarian
# [54] = test system: U251 CNS
# [55] = test system: K-562 leukemia
# [56] = test system: 786-0 renal
# [57] = test system: SF-268 CNS
# [58] = test system: NCI-H23 lung
# [59] = test system: HOP-92 NSCLC
structure (smiles),measurement,setting,value
O=S1c2ccccc2N=C(c2cccc3ccccc23)CC1c1cccc2ccccc12 (stereo unspecified),TGI,[1],37.5 µM
same,TGI,[2],40.6 µM
same,TGI,[3],> 100 µM
same,TGI,[4],34.8 µM
same,TGI,[5],32 µM
same,TGI,[6],55.3 µM
same,TGI,[7],39.3 µM
same,TGI,[8],38.7 µM
same,TGI,[9],50.9 µM
same,TGI,[10],49.1 µM
same,TGI,[11],32 µM
same,TGI,[12],66.7 µM
same,TGI,[13],> 100 µM
same,TGI,[14],37.6 µM
same,TGI,[15],67.8 µM
same,TGI,[16],20.6 µM
same,TGI,[17],39.2 µM
same,TGI,[18],25.2 µM
same,TGI,[19],40.5 µM
same,TGI,[20],33.6 µM
same,TGI,[21],30.5 µM
same,TGI,[22],31.2 µM
same,TGI,[23],71.2 µM
same,TGI,[24],28.1 µM
same,TGI,[25],31.8 µM
same,TGI,[26],58.3 µM
same,TGI,[27],27.8 µM
same,TGI,[28],42.2 µM
same,TGI,[29],46.3 µM
same,TGI,[30],19.9 µM
same,TGI,[31],37.4 µM
same,TGI,[32],40.9 µM
same,TGI,[33],40.6 µM
same,TGI,[34],30.5 µM
same,TGI,[35],26.4 µM
same,TGI,[36],89.3 µM
same,TGI,[37],27.9 µM
same,TGI,[38],49.1 µM
same,TGI,[39],71.2 µM
same,TGI,[40],> 100 µM
same,TGI,[41],37.5 µM
same,TGI,[42],62.8 µM
same,TGI,[43],> 100 µM
same,TGI,[44],36.7 µM
same,TGI,[45],56.4 µM
same,TGI,[46],49.2 µM
same,TGI,[47],> 100 µM
same,TGI,[48],> 100 µM
same,TGI,[49],84.1 µM
same,TGI,[50],30 µM
same,TGI,[51],4.33 µM
same,TGI,[52],49.5 µM
same,TGI,[53],34 µM
same,TGI,[54],37.7 µM
same,TGI,[55],60.5 µM
same,TGI,[56],76.6 µM
same,TGI,[57],57.5 µM
same,TGI,[58],39.1 µM
O=C(CC1(O)C(=O)Nc2c(Cl)cc(Cl)cc21)c1ccc(Br)cc1 (stereo unspecified),TGI,[1],> 53 µM
same,TGI,[2],31.2 µM
same,TGI,[3],25.4 µM
same,TGI,[4],> 53.8 µM
same,TGI,[5],> 56.3 µM
same,TGI,[6],> 63.5 µM
same,TGI,[7],34.7 µM
same,TGI,[8],31.1 µM
same,TGI,[9],50.6 µM
same,TGI,[10],39.5 µM
same,TGI,[11],30.6 µM
same,TGI,[12],35.5 µM
same,TGI,[13],35.7 µM
same,TGI,[14],> 56.1 µM
same,TGI,[15],17.4 µM
same,TGI,[16],35.1 µM
same,TGI,[17],> 66 µM
same,TGI,[18],30.4 µM
same,TGI,[19],29.8 µM
same,TGI,[20],> 52.4 µM
same,TGI,[21],> 50.4 µM
same,TGI,[22],> 51.3 µM
same,TGI,[23],33 µM
same,TGI,[24],31.8 µM
same,TGI,[25],> 56.1 µM
same,TGI,[26],31.4 µM
same,TGI,[27],25.6 µM
same,TGI,[28],29.5 µM
same,TGI,[59],29.7 µM
same,TGI,[29],> 52.2 µM
same,TGI,[30],31.3 µM
same,TGI,[31],> 56.1 µM
same,TGI,[32],> 57.8 µM
same,TGI,[33],> 56.3 µM
same,TGI,[34],18.6 µM
same,TGI,[35],23.2 µM
same,TGI,[36],32.1 µM
same,TGI,[37],> 50.2 µM
same,TGI,[38],> 55 µM
same,TGI,[39],> 55.4 µM
same,TGI,[40],47 µM
same,TGI,[42],18.9 µM
same,TGI,[43],64 µM
same,TGI,[44],44.2 µM
same,TGI,[45],28.8 µM
same,TGI,[46],62.1 µM
same,TGI,[47],28.8 µM
same,TGI,[48],32.9 µM
same,TGI,[49],29.1 µM
same,TGI,[50],32.4 µM
same,TGI,[51],> 20 µM
same,TGI,[52],> 57.9 µM
same,TGI,[53],35.3 µM
same,TGI,[54],26.9 µM
same,TGI,[55],> 72.8 µM
same,TGI,[56],26.4 µM
same,TGI,[57],34.4 µM
same,TGI,[58],29.3 µM
